Measurements taken from PubChem BioAssay AID2060885 (Molecular Pharmacology Branch, DTP, NCI, 2025).

Test system: NCI-H23 complex spheroids with HUVEC/MSC, viability
Test: Anticancer human tumor NCI-H23 cell line growth inhibition [RAS];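 also: spheroids exposed to compound for 7 days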;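 as to viability, T/C: 100% = DMSO vehicle control viability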
Settings: for IC50: curve of first compound; for viability, T/C: stronger effect = lower value; active = viability on the fitted dose curve at most 10% of control; inactive = the rest
Procedure, shortened: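 Multi-cell-type spheroids: tumor cells plus HUVEC endothelial cells and mesenchymal stem cells. RAS-pathway inhibitors were combined with targeted agents, each dosed in half-log steps down from clinical Cmax, or from 10 microM when Cmax was unknown.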

[1] = second compound 0.000949 µM, first compound 0.0316 µM
[2] = second compound 0.000949 µM, first compound 0.1 µM
[3] = second compound 0.000949 µM, first compound 0.316 µM
[4] = second compound 0.000949 µM, first compound 1 µM
[5] = second compound 0.003 µM, first compound 0.0316 µM
[6] = second compound 0.003 µM, first compound 0.1 µM
[7] = second compound 0.003 µM, first compound 0.316 µM
[8] = second compound 0.003 µM, first compound 1 µM
[9] = second compound 0.00949 µM, first compound 0.0316 µM
[10] = second compound 0.00949 µM, first compound 0.1 µM
[11] = second compound 0.00949 µM, first compound 0.316 µM
[12] = second compound 0.00949 µM, first compound 1 µM
[13] = second compound 0.03 µM, first compound 0.0316 µM
[14] = second compound 0.03 µM, first compound 0.1 µM
[15] = second compound 0.03 µM, first compound 0.316 µM
[16] = second compound 0.03 µM, first compound 1 µM
[17] = second compound 0.0949 µM, first compound 0.0316 µM
[18] = second compound 0.0949 µM, first compound 0.1 µM
[19] = second compound 0.0949 µM, first compound 0.316 µM
[20] = second compound 0.0949 µM, first compound 1 µM
[21] = second compound 0.3 µM, first compound 0.0316 µM
[22] = second compound 0.3 µM, first compound 0.1 µM
[23] = second compound 0.3 µM, first compound 0.316 µM
[24] = second compound 0.3 µM, first compound 1 µM

CC(=O)OC12COC1CC(O)C1(C)C(=O)C(O)C3=C(C)C(OC(=O)C(O)C(NC(=O)OC(C)(C)C)c4ccccc4)CC(O)(C(OC(=O)c4ccccc4)C21)C3(C)C (centres undefined) + CCn1c(-c2cccnc2C(C)OC)c2c3cc(ccc31)N1CCOC(CC(NC(=O)C(C(C)C)N(C)C(=O)C3(F)CCN(C(=O)C#CC(C)(C)N(C)C)CC3)C(=O)N3CCCC(N3)C(=O)OCC(C)(C)C2)C1
< 31.6 nM: IC50 (second compound 0.000949 µM) | IC50 (second compound 0.003 µM) | IC50 (second compound 0.00949 µM) | IC50 (second compound 0.03 µM) | IC50 (second compound 0.0949 µM) | IC50 (second compound 0.3 µM)
inactive: viability, T/C [1] 10.4% | viability, T/C [2] 12.4% | viability, T/C [3] 9.29% | viability, T/C [4] 12.5% | viability, T/C (second compound 0.000949 µM, first compound 3.16 µM) 17.6% | viability, T/C (second compound 0.000949 µM, first compound 10 µM) 17.5% | viability, T/C [5] 11.3% | viability, T/C [6] 10.6% | viability, T/C [7] 10.2% | viability, T/C [8] 11.5% | viability, T/C (second compound 0.003 µM, first compound 3.16 µM) 17% | viability, T/C (second compound 0.003 µM, first compound 10 µM) 14.2% | viability, T/C [9] 9.65% | viability, T/C [10] 8.65% | viability, T/C [11] 11.5% | viability, T/C [12] 11% | viability, T/C (second compound 0.00949 µM, first compound 3.16 µM) 12.8% | viability, T/C (second compound 0.00949 µM, first compound 10 µM) 15.8% | viability, T/C [13] 9.84% | viability, T/C [14] 8.29% | viability, T/C [15] 10.2% | viability, T/C [16] 9.41% | viability, T/C (second compound 0.03 µM, first compound 3.16 µM) 11.5% | viability, T/C (second compound 0.03 µM, first compound 10 µM) 16.5% | viability, T/C [17] 8.35% | viability, T/C [18] 8.9% | viability, T/C [19] 8.97% | viability, T/C [20] 9.36% | viability, T/C (second compound 0.0949 µM, first compound 3.16 µM) 9.42% | viability, T/C (second compound 0.0949 µM, first compound 10 µM) 16.1%
active: viability, T/C [21] 6.76% | viability, T/C [22] 6.43% | viability, T/C [23] 7.66% | viability, T/C [24] 8.04% | viability, T/C (second compound 0.3 µM, first compound 3.16 µM) 9.25% | viability, T/C (second compound 0.3 µM, first compound 10 µM) 12.2%

Nc1ccn(C2OC(CO)C(O)C2(F)F)c(=O)n1 (centres undefined) + CCn1c(-c2cccnc2C(C)OC)c2c3cc(ccc31)N1CCOC(CC(NC(=O)C(C(C)C)N(C)C(=O)C3(F)CCN(C(=O)C#CC(C)(C)N(C)C)CC3)C(=O)N3CCCC(N3)C(=O)OCC(C)(C)C2)C1
inactive: viability, T/C (second compound 0.000949 µM, first compound 0.00316 µM) 11.4% | viability, T/C (second compound 0.003 µM, first compound 0.00316 µM) 12.7% | viability, T/C (second compound 0.00949 µM, first compound 0.00316 µM) 14.5% | viability, T/C (second compound 0.03 µM, first compound 0.00316 µM) 12.3%
active: viability, T/C (second compound 0.000949 µM, first compound 0.01 µM) 1.89% | viability, T/C [1] 1.33% | viability, T/C [2] 1.32% | viability, T/C [3] 1.35% | viability, T/C [4] 1.46% | viability, T/C (second compound 0.003 µM, first compound 0.01 µM) 1.78% | viability, T/C [5] 1.61% | viability, T/C [6] 1.5% | viability, T/C [7] 1.63% | viability, T/C [8] 2.39% | viability, T/C (second compound 0.00949 µM, first compound 0.01 µM) 1.69% | viability, T/C [9] 2.29% | viability, T/C [10] 1.8% | viability, T/C [11] 1.79% | viability, T/C [12] 1.41% | viability, T/C (second compound 0.03 µM, first compound 0.01 µM) 1.86% | viability, T/C [13] 1.31% | viability, T/C [14] 1.39% | viability, T/C [15] 1.75% | viability, T/C [16] 1.29% | viability, T/C (second compound 0.0949 µM, first compound 0.00316 µM) 7.86% | viability, T/C (second compound 0.0949 µM, first compound 0.01 µM) 1.71% | viability, T/C [17] 1.74% | viability, T/C [18] 1.51% | viability, T/C [19] 1.72% | viability, T/C [20] 1.81% | viability, T/C (second compound 0.3 µM, first compound 0.00316 µM) 7.88% | viability, T/C (second compound 0.3 µM, first compound 0.01 µM) 1.67% | viability, T/C [21] 1.78% | viability, T/C [22] 1.28% | viability, T/C [23] 1.59% | viability, T/C [24] 1.54%
< 3.16 nM: IC50 (second compound 0.000949 µM) | IC50 (second compound 0.003 µM) | IC50 (second compound 0.00949 µM) | IC50 (second compound 0.03 µM) | IC50 (second compound 0.0949 µM) | IC50 (second compound 0.3 µM)
